Source: US10106778B2, “Selective targeting of cancer stem cells” (Whitehead Institute for Biomedical Research, priority 2012, dated 2018)

Assays:
[1] = test system: NAMEC-Tom-Ras and HMLE-GFP-Ras cells; experiment: Co-mixed NAMEC-Tom-Ras (CSC-enriched) and HMLE-GFP-Ras (CSC-depleted) cells, kinase inhibition, FACS; format: cell-based, human; conditions: for which cell type is more sensitive / selected against: dose response, co-mixed cells; for resistance of NAMEC-Tom-Ras cells relative to HMLE-GFP-Ras cells: at LC50, co-mixed cells
Procedure: (§1) Kinase inhibitors and other chemical compounds were obtained from various sources listed below. These were dissolved or diluted in DMSO. To set up the screen, 75,000 NAMEC-Tom and 15,000 HMLE-GFP cells were seeded into each well of a 6-well tissue culture plate. The following day, spent media was replaced with 3 ml of fresh media. Inhibitors were added to achieve the desired range of concentrations. For control treatment, DMSO was added. Fresh media containing inhibitors were replaced daily during the six day period. For analysis, cells were trypsinized with 1 ml 0.15% trypsin, diluted with 1 ml serum-containing media and fixed with 1 ml of 4% paraformaldehyde. FACS analysis was performed to analyze the proportion of surviving cells relative to DMSO-treated control for NAMEC-Tom or HMLE-GFP cells. To test the effects of these inhibitors on CSCs and non-CSCs, NAMEC-Ras-Tom and […] were used in similar co-mixed experiments.
as §1, with “experiments. To assess the fraction of cells undergoing apoptosis, cells were exposure to agents for three days without fresh media and then analyzed with Annexin V-APC (BD Biosciences).” for “experiments.”
Having determined that NAMEC-Ras cells were enriched for CSCs, we mixed NAMEC-Ras cells labeled with tdTomato (NAMEC-Tom-Ras) and HMLE-Ras cells labeled with GFP (HMLE-GFP-Ras) and re-tested the effects of kinase inhibition as described above. […] In addition, these NAMEC-Tom-Ras cells were more resistant to paclitaxel (11.3 fold) and staurosporine (32.8 fold) than the corresponding HMLE-GFP-Ras cells used as controls (FIG. 3C).

NAMECs = experiment: Cellular plasticity of NAMECs: differentiation by PGE2 blockade and inhibitor sensitivity; format: cell-based, human; conditions: for sensitivity of GW-treated (differentiated) NAMECs: after differentiation with GW627368; for sensitivity of NAMECs relative to parental HMLE cells: undifferentiated NAMECs
Source text: NAMECs are phenotypically plastic and can transit between the epithelial and mesenchymal cell state. The cells relied on autocrinal PGE2 signaling for maintenance of the mesenchymal state.

[2] = test system: p-PKCα^S497 and p-PKCα^T638; experiment: Western blot of PKCα phosphorylation in NAMECs; format: cell-based, human
Procedure: (§2) To obtain protein extracts, cells were scraped from culture dishes in chilled PBS, centrifuged at 450×g for 4 min at 4° C., washed again in PBS, and incubated for 20 min in ice cold lysis buffer containing freshly added protease inhibitors (0.5 mM phenylmethylsulfonyl fluoride, 10 μg/ml leupeptin, 2 μg/ml aprotonin). Lysates were cleared by centrifugation at 12,100×g, 4° C. for 10 min and the supernatant was snap frozen in liquid nitrogen. Protein concentrations were determined using Bradford Dye (Bio-Rad). 30 μg total protein was separated by SDS-PAGE on NuPAge gels (Invitrogen), and transferred to Hybond-P PVDF membrane (GE Healthcare). The membrane was probed with specific primary antibodies and antibody-protein complex detected by HRP-conjugated antibodies and ECL-Plus (Amersham Biosciences).
We subsequently sought to determine whether PKCα activation was directly dependent upon PDGFR-PLCγ. Exposure of NAMECs to a PLCγ inhibitor (U73122) reduced active p-PKCα^S497 and p-PKCα^T638 by 1.3 and 3.1-fold respectively within 30 min, and 6.3 and 4.2-fold respectively by 60 min (FIG. 13C); total PKCα level was unchanged (FIG. 13C). The inhibition of PDGFR in NAMECs, similarly, led to a loss of PKCα phosphorylation (p-PKCα^S497: 2.8 fold, p-PKCα^T638: 5.9 fold), as illustrated once again by the loss of active p-PKCα^S497 and p-PKCα^T638 within 30 min, while total PKCα remained constant (FIG. 13D).

p-FRA1^S265 = experiment: Western blot of FRA1 phosphorylation in NAMECs; format: cell-based, human; conditions: for effect on phosphorylation of FRA1: applied to NAMECs for 30 min; for total FRA1: within 30 min of treatment
Procedure: as §2
FRA1 is a member of the Fos family of transcription factors, which is also comprised of c-Fos, FosB and Fra2. Together with the Jun family of transcription factors composed of c-Jun, JunB and JunD, individual members of the Fos and Jun family associate with one another to form heterodimeric activator protein-1 (AP-1) complexes that bind and transcriptionally regulate target gene expression when phosphorylated (Eferl and Wagner, 2003).
We assessed whether the observed increased p-FRA1 activity in the mesenchymal cells could be further augmented by elevated ERK signaling during EMT. Accordingly, inhibition of ERK1/2 phosphorylation with a MEK inhibitor was able to decrease p-FRA1^S265 levels by 65% but not the levels of total FRA1 or p-c-Jun (FIG. 5G), confirming that ERK1/2 signaling promoted p-FRA1 activity.

[3] = test system: p-B-Raf, p-c-Raf, p-MEK1/2 and p-ERK1/2; experiment: Western blot of MAPK/ERK signaling in NAMECs; format: cell-based, human; conditions: 30 min
Procedure: as §2
We assessed whether mesenchymal cells contained higher Ras expression or activated Ras. […] We assessed whether enhanced ERK signaling in the mesenchymal cell state was primarily mediated through the activated PDGFR and PKCα signaling cascade, rather than through activation via a Ras-Raf pathway. To test this, we exposed NAMECs to PKCα-specific inhibitors for 30 min. This reduced p-B-Raf and p-c-Raf expression, and led to the loss of p-MEK1/2 and p-ERK1/2 (FIG. 5F). […] Therefore, the enhanced activity of ERK signaling during EMT was, in part, conferred by signaling through PDGFR and PKCα.

[4] = test system: NAMEC-Tom and HMLE-GFP cells; experiment: Kinase inhibitor screen: co-mixed NAMEC-Tom and HMLE-GFP cells, six days of inhibitor, FACS; format: cell-based, human; conditions: six days of inhibitor treatment, FACS relative to DMSO
Procedure: as §1
as §1, with “experiments. To assess the fraction of cells undergoing apoptosis, cells were exposure to agents for three days without fresh media and then analyzed with Annexin V-APC (BD Biosciences).” for “experiments.”
We undertook to identify kinase inhibitors that selectively targeted mesenchymal-like cells including those with stem cell properties. To do so, we established a screen that measured the ability of candidate inhibitors to preferentially deplete NAMECs but not parental HMLE cells from cell cultures. Thus, we labeled NAMECs with the tdTomato red fluorescent protein (NAMEC-Tom) and the HMLE cells with the GFP green fluorescent protein (HMLE-GFP); we then attempted to reconstitute certain stem cell and non-stem cell interactions that might operate in vivo by mixing the two cell populations in 6-well adherent tissue culture plates. One day later, we challenged these cultures with a variety of kinase inhibitors (FIG. 2A).
The robustness of this screen, designed to identify mesenchymal cell-specific inhibitors, was enhanced by seeding NAMEC-Tom and HMLE-GFP cells in a 5:1 ratio. While NAMEC-Tom cells, like others that have passed through an EMT, proliferated marginally more slowly than their epithelial counterparts in culture, their initial advantage in seeding density was compensated over the course of the six day-long assays by the more rapid proliferation of the HMLE-GFP cells (FIG. 11). After six days of treatment, the relative proportions of NAMEC-Tom and HMLE-GFP cells were quantified with fluorescent-activated cell sorting (FACS) to determine the selective effects, if any, of these various inhibitors (FIG. 2A).

NAMEC-Tom cells = experiment: Annexin V apoptosis in co-mixed culture, NAMEC-Tom gate; format: cell-based, human; conditions: co-mixed cells treated for three days
Procedure: as §1, with “experiments. To assess the fraction of cells undergoing apoptosis, cells were exposure to agents for three days without fresh media and then analyzed with Annexin V-APC (BD Biosciences).” for “experiments.”
(§3) To assess how PKC inhibitors function in these cell populations, we tested whether they induced apoptosis. Thus, the mixed cell populations described above were treated with one of the inhibitors (Ro-31-8220) for three days and assessed with Annexin V, which marks apoptotic cells. 89% of NAMEC-Tom cells underwent apoptosis in comparison to 22.4% of the HMLE-GFP cells (FIG. 2E).

HMLE-GFP cells = experiment: Annexin V apoptosis in co-mixed culture, HMLE-GFP gate; format: cell-based, human; conditions: co-mixed cells treated for three days
Procedure: as §1, with “experiments. To assess the fraction of cells undergoing apoptosis, cells were exposure to agents for three days without fresh media and then analyzed with Annexin V-APC (BD Biosciences).” for “experiments.”
as §3

NAMEC-Ras cells = experiment: NAMEC-Ras subcutaneous xenograft, treatment from day of implantation; format: in vivo
Procedure: All research involving animals complied with protocols approved by the MIT Committee on Animal Care. For subcutaneous injections, cells resuspended in 100111 PBS containing 50% Matrigel were injected into both flanks female NOD-SCID mice except for studies involving the in vivo administration of chemical inhibitors where only one flank was implanted. The tumor incidence and weight were measured between 4 and 12 weeks post-injection.
In order to assess the therapeutic benefits of PKCα and SPHK1/2 inhibitors, NOD-SCID mice were xenografted with 5×10^4 NAMEC-Ras cells and treated for 30 days with a daily intraperitoneal dose of either DMSO control, PKCα Inh (5 mg/kg/d), SPHK1/2 Inh (5 mg/kg/d) or PKCα+SPHK1/2 inhibitors (2.5 mg/kg/d of each).

[5] = 5×10^4 cells, daily intraperitoneal 30 days, 5 mg/kg/d (combination 2.5 mg/kg/d of each), after 15 weeks

Molecule: CC#CC(=O)Nc1cc2c(Nc3ccc(F)c(Cl)c3)ncnc2cn1 [EGFR Inh III]
- which cell type is more sensitive / selected against [1]: HMLE-Ras-GFP were more sensitive

Molecule: O=C(Nc1cccc(Nc2cc(Nc3cccc(C(F)(F)F)c3)ncn2)c1)C1CC1 [EGFR Inh]
- which cell type is more sensitive / selected against [1]: HMLE-Ras-GFP were more sensitive

Molecule: CCOc1c2c(c(OCC)c3ccccc13)C(=O)N(c1ccc(CC(=O)NS(=O)(=O)c3ccccc3)cc1)C2 [GW627368]
- protein changes accompanying differentiation (NAMECs; PGE2 inhibition): downregulation of p-PKCα and SPHK1/2 proteins
- morphology of NAMECs (NAMECs; blocked PGE2 signaling): differentiated into an epithelial morphology within three weeks

Molecule: COc1cc2c(cc1OC)-c1[nH]nc(Nc3cccc(F)c3)c1C2 [PDGFR Inh IV]
- which cell type is more sensitive / selected against [1]: NAMEC-Ras-Tom cells were more sensitive
- effect on PKCα phosphorylation [2]: reduced phosphorylation of PKCα
- effect on phosphorylation of FRA1 (p-FRA1^S265): blocked the phosphorylation of FRA1
- effect on phospho-proteins of ERK signaling [3]: downregulation of B-Raf and C-Raf phosphorylation, and dampening ERK signaling

Molecule: Cn1cc(C2=C(c3cn(CCCSC(=N)N)c4ccccc34)C(=O)NC2=O)c2ccccc21 [Ro-31-8220]
- preferential depletion of NAMEC-Tom or HMLE-GFP cells in co-mixed culture [4]: diminished NAMEC-Tom cells relative to HMLE-GFP cells
- apoptosis of NAMEC-Tom cells (Annexin V) (NAMEC-Tom cells): 89%
- apoptosis of HMLE-GFP cells (Annexin V) (HMLE-GFP cells): 22.4%
- mice that formed tumors (NAMEC-Ras cells; [5]): four of eight
- tumor weight (NAMEC-Ras cells; [5]): ~0.16 g
- tolerability in mice (NAMEC-Ras cells; 30 days of treatment followed by eight weeks of observation): well-tolerated in mice and had no adverse effects
- effect on phosphorylation of FRA1 (p-FRA1^S265): blocked the phosphorylation of FRA1
- total FRA1 (p-FRA1^S265): unchanged
- sensitivity of GW-treated (differentiated) NAMECs (NAMECs): lost their sensitivity
- sensitivity of NAMECs relative to parental HMLE cells (NAMECs): more sensitive

Molecule: Oc1ccc(Nc2nc(-c3ccc(Cl)cc3)cs2)cc1 [SKI2]
- sensitivity of GW-treated (differentiated) NAMECs (NAMECs): lost their sensitivity
- sensitivity of NAMECs relative to parental HMLE cells (NAMECs): more sensitive

Molecule: COc1ccc2c(c1)CC[C@@H]1[C@@H]2CC[C@]2(C)[C@@H](NCCCCCCN3C(=O)C=CC3=O)CC[C@@H]12 [U73122]
- effect on PKCα phosphorylation [2]: The upregulation of PKCα phosphorylation by PDGFC was blocked
- total PKCα level [2]: unchanged
- reduction of p-PKCα^S497 ([2]; by 60 min): 6.3 fold
- reduction of p-PKCα^T638 ([2]; by 60 min): 4.2 fold
- reduction of p-PKCα^S497 ([2]; within 30 min): 1.3 fold
- reduction of p-PKCα^T638 ([2]; within 30 min): 3.1 fold

Molecule: CCCCCCCCc1cccc(NC(=O)[C@H](N)COP(=O)(O)O)c1 [VPC23019]
- which cell type is more sensitive / selected against [1]: selected against NAMEC-Tom-Ras cells relative to HMLE-GFP-Ras cells in a dose-dependent manner

Molecule: CN(C)CCCn1cc(C2=C(c3c[nH]c4ccccc34)C(=O)NC2=O)c2ccccc21 [bisindolylmaleimide I]
- preferential depletion of NAMEC-Tom or HMLE-GFP cells in co-mixed culture [4]: diminished NAMEC-Tom cells relative to HMLE-GFP cells
- effect on phosphorylation of FRA1 (p-FRA1^S265): blocked the phosphorylation of FRA1
- total FRA1 (p-FRA1^S265): unchanged

Molecule: COc1cccc2c1C(=O)c1c(O)c3c(c(O)c1C2=O)C[C@@](O)(C(=O)CO)C[C@@H]3O[C@H]1C[C@H](N)[C@H](O)[C@H](C)O1 [doxorubicin]
- preferential depletion of NAMEC-Tom or HMLE-GFP cells in co-mixed culture [4]: preferentially depleted the epithelial HMLE-GFP cells

Molecule: CC(=O)O[C@H]1C(=O)[C@@]2(C)[C@H]([C@H](OC(=O)c3ccccc3)[C@]3(O)C[C@H](OC(=O)[C@H](O)[C@@H](NC(=O)c4ccccc4)c4ccccc4)C(C)=C1C3(C)C)[C@]1(OC(C)=O)CO[C@@H]1C[C@@H]2O [paclitaxel]
- preferential depletion of NAMEC-Tom or HMLE-GFP cells in co-mixed culture [4]: preferentially depleted the epithelial HMLE-GFP cells
- apoptosis of NAMEC-Tom cells (Annexin V) (NAMEC-Tom cells): 22.3%
- apoptosis of HMLE-GFP cells (Annexin V) (HMLE-GFP cells): 89%
- resistance of NAMEC-Tom-Ras cells relative to HMLE-GFP-Ras cells [1]: 11.3 fold
- sensitivity of GW-treated (differentiated) NAMECs (NAMECs): became sensitive
- sensitivity of NAMECs relative to parental HMLE cells (NAMECs): resistant

Molecule: CN[C@@H]1C[C@H]2O[C@@](C)([C@@H]1OC)n1c3ccccc3c3c4c(c5c6ccccc6n2c5c31)C(=O)NC4 [staurosporine]
- preferential depletion of NAMEC-Tom or HMLE-GFP cells in co-mixed culture [4]: preferentially depleted the epithelial HMLE-GFP cells
- apoptosis of NAMEC-Tom cells (Annexin V) (NAMEC-Tom cells): 29.7%
- apoptosis of HMLE-GFP cells (Annexin V) (HMLE-GFP cells): 98%
- resistance of NAMEC-Tom-Ras cells relative to HMLE-GFP-Ras cells [1]: 32.8 fold
- sensitivity of GW-treated (differentiated) NAMECs (NAMECs): became sensitive
- sensitivity of NAMECs relative to parental HMLE cells (NAMECs): resistant

Molecule: PKC 20-28: PKCα inhibitor, EMD Biosciences 476480 (FARKGALRQ; pseudosubstrate peptide; UniProt P17252 20-28, looked up, fragment)
- preferential depletion of NAMEC-Tom or HMLE-GFP cells in co-mixed culture [4]: diminished NAMEC-Tom cells relative to HMLE-GFP cells
